Values after ≈ are worked out from the molar mass of the structure shown. “Also recorded” adds a separate entry of the source.
Assays:
[1] = test system: PC-3 (prostate cancer); assay: MTT cytotoxicity assay, PC-3; assay type: cell-based; details: for IC50: Homo sapiens, MTT, 72 h, mean ± SD of three replicates; for IC50 / SI (selectivity index) PC-3: isolated compounds; for antiproliferative/cytotoxic activity against PC-3 (in words): MTT assay; for SI (selectivity index) PC-3: IC50 HUVEC / IC50 PC-3
Procedure: (§1) The human cell lines MCF-7 (breast cancer), Ca Ski (cervical cancer), and HT-29 (colon cancer) were cultured as monolayer in RPMI 1640 growth media. HUVEC (human umbilical vein endothelial cells) and PC-3 (prostate cancer) cells were cultured in DMEM. All cells were purchased from the American Tissue Culture Collection (ATCC, USA) except for human umbilical vein endothelial cells (HUVEC) which were obtained from ScienCell Research Laboratories (Carlsbad, CA). All the media were supplemented with 10% v/v foetal bovine serum (FBS), 100 μg/mL penicillin/streptomycin, and 50 μg/mL amphotericin B. The cells were cultured in a 5% CO2 incubator at 37°C.
(§2) Cell viability was investigated using 3-(4, 5-dimethylthiazol-2-yl)-2, 5-diphenyltetrazolium bromide (MTT) assay. Cells were detached from the […] tissue culture flask when it achieved 80% confluency. The detached cells were pellet by centrifugation (1,000 rpm; 5 minutes). Cells (3.0 × 10^4 cells/mL) were seeded onto a 96-well microtiter plate (Nunc). The cells were incubated at 37°C CO2 incubator for 24 h to give adherent cells. The test compounds (1–100 μg/mL) were added onto the 96-well microtiter plate containing adherent cells. The untreated cells were incubated in 10% media containing 0.5% DMSO (without addition of any test compounds/extracts). This mixture was regarded as the negative control whereas doxorubicin as the positive control. The plates were incubated for 72 h at 37°C in a 5% CO2 incubator. After 72 h, the media were removed and 100 μL of fresh medium and 20 μL of MTT (Sigma, filter sterile, 5 mg/mL) were added to each well and further incubated for 4 hours (37°C) after which the media were substituted with 150 μL DMSO. The 96-well microtiter plates were then agitated at room temperature onto an incubator shaker to dissolve the formazan crystals. The absorbance (A) of the content of the plates was measured at 540 nm using a microplate reader. The percentage of inhibition of each test sample was calculated according to the following formula: Percentage of inhibition (%) = (A control − A sample)/A control × 100%. The average of three replicates was then obtained. The IC50 for each extract was extrapolated from the graphs of the percentage inhibition versus concentration of test agents. Cytotoxicity of each test agent is expressed as IC50 value. The IC50 value is the concentration of test agents that cause 50% inhibition or cell death, averaged from the three experiments. The selectivity index (SI) was also calculated as described by using the ratio between IC50 of the extract or compounds on normal cell lines (HUVEC) and IC50 of the tested extract or compounds on cancerous cell lines. Selectivity index (SI) values equal or greater than three were considered to have a high selectivity towards cancerous cells. An SI value denotes the selectivity of the sample to the tested cell lines.

[2] = test system: HT-29 (colon cancer); assay: MTT cytotoxicity assay, HT-29; assay type: cell-based; details: for IC50: Homo sapiens, HT-29, MTT, 72 h, mean ± SD of three replicates; for IC50 / SI (selectivity index) HT-29: isolated compounds; for antiproliferative/cytotoxic activity against HT-29 (in words): MTT assay; for SI (selectivity index) HT-29: IC50 HUVEC / IC50 HT-29
Procedure: as §1, §2

[3] = test system: MCF-7 (breast cancer); assay: cells; assay type: cell-based; details: for IC50: Homo sapiens, MCF7, MTT, 72 h, mean ± SD of three replicates; for IC50 / SI (selectivity index) MCF-7: isolated compounds; for SI (selectivity index) MCF-7: IC50 HUVEC / IC50 MCF-7; for antiproliferative/cytotoxic activity against MCF-7 (in words): MTT assay
Procedure: as §1, §2

[4] = test system: Ca Ski (cervical cancer); assay: cells; assay type: cell-based; details: for IC50: Homo sapiens, Ca-Ski, MTT, 72 h, mean ± SD of three replicates; for IC50 / SI (selectivity index) Ca Ski: isolated compounds; for SI (selectivity index) Ca Ski: IC50 HUVEC / IC50 Ca Ski
Procedure: as §1, §2

[5] = test system: HUVEC (human umbilical vein endothelial cells); assay: cells; assay type: cell-based; details: for IC50: Homo sapiens, HUVEC, isolated compounds, MTT, 72 h, normal cells; for toxicity towards normal cells HUVEC (in words): MTT assay
Procedure: as §1, §2

[6] = set-up: method as in PMID 19043244; details: isolated from the rhizomes of Curcuma zedoaria; cited from earlier work
[7] = test system: MCF-7 cells; assay: Phase contrast microscopy of treated MCF-7 cells; assay type: cell-based, human; details: 48 h; 12.5 and 25 µg/mL; inverted phase contrast microscope 400x
Procedure: Briefly, MCF-7 cells (5 × 10^5) were grown in a tissue culture dishes (60 mm) for overnight. Then, the cells were treated with curcumenone (3) and curcumenol (5) at a concentration of 12.5 and 25 μg/mL, respectively. After 48 hours, cells were gently rinsed with PBS. The observation of morphological changes of apoptotic MCF-7 cells after treatment with the two bioactive compounds was viewed using an inverted phase contrast microscope (Leica DMI 3000B, Germany) at 400x magnification according to the method.

[8] = test system: MCF-7 cells; assay: Hoechst 33342/PI double staining, fluorescence microscopy; assay type: cell-based, human; details: 48 h, 12.5 and 25 μg/mL
Procedure: The morphological features of MCF-7 cells upon treatment by the test compounds also observed by double staining of Hoechst 33342/PI assay using the inverted fluorescence microscope (Leica, DM16000B). Briefly, 5 × 10^5 cells were grown overnight and treated with 12.5 and 25 μg/mL of curcumenone (3) and curcumenol (5). After treatment of cells with the test compounds for 48 hours, both floating and adherent cells were collected by centrifugation and washed once with cold PBS. Then, Hoechst 33342 solutions (10 μg/mL) were added and incubated at 37°C for 7 minutes. The cells were then stained with PI (2.5 μg/mL) and further incubated in the dark for 15 minutes. Cell suspension (100 μL) was mounted onto glass microscope slides and observed under fluorescence microscope using UV/488 dual excitation (460 nm emission of Hoechst 33342, 575 nm emission of PI). Approximately a total of 200 target cells were calculated and the morphological characteristics of the nuclei were analyzed for quantification of apoptosis and necrosis. The percentage of apoptotic, necrotic, and dead cells was determined according to the formula described by.

[9] = test system: P450; set-up: method as in PMID 20148399; details: time- and NADPH-dependent inhibitions; cited from earlier work
[10] = set-up: method as in PMID 23160092; details: cited from earlier work
[11] = set-up: method as in PMID 9871681; details: cited from earlier work
[12] = test system: liver alcohol dehydrogenase; set-up: method as in PMID 23160092; details: cited from earlier work

SMILES | IC50 [1] [µg/mL] | antiproliferative/cytotoxic activity against PC-3 (in words) [1] | SI (selectivity index) PC-3 [1] | IC50 [2] [µg/mL] | antiproliferative/cytotoxic activity against HT-29 (in words) [2] | SI (selectivity index) HT-29 [2] | IC50 [3] [µg/mL] | SI (selectivity index) MCF-7 [3] | IC50 [4] [µg/mL] | SI (selectivity index) Ca Ski [4] | IC50 [5] [µg/mL] | toxicity towards normal cells HUVEC (in words) [5] | morphological changes of MCF-7 cells [7] | apoptosis induction [8] | antiproliferative/cytotoxic activity against MCF-7 (in words) [3] | further results
C/C1=C\CC[C@@]2(C)O[C@@H]2CC(C)(C)/C=C/C1=O [Compound 8, zerumbone epoxide] | 10.8 ± 1.9 (≈ 46.1 µM) | good cytotoxic effect | 1.3 | 13.7 ± 2.7 (≈ 58.5 µM) | good cytotoxic effect | 1.0 | 24.1 ± 0.1 (≈ 103 µM) | 0.6 | 34.5 ± 0.6 (≈ 147 µM) | 0.4 | 14.2 ± 1.1 (≈ 60.6 µM) | slight toxicity | – | – | – | cytotoxic effects [6]: possessed cytotoxic effects
CC1=C[C@]2(O)O[C@@]3(CC2=C(C)C)[C@@H](C)CC[C@@H]13 [Compound 5, curcumenol] | 17.3 ± 1.2 (≈ 73.8 µM) | moderate inhibitory activity | 1.5 | 24.8 ± 2.7 (≈ 106 µM) | moderate inhibitory activity | 1.0 | 9.3 ± 0.3 (≈ 39.7 µM) | 2.8 | 18.5 ± 1 (≈ 78.9 µM) | 1.4 | 25.9 ± 1.4 (≈ 111 µM) | low toxicity | cell shrinkage, loss of contact with adjacent cells, and decrease in cell numbers | induction of apoptotic death occurred; also recorded: better inducing apoptosis capacity in comparison to curcumenone (3) | strong antiproliferative activity | mechanism-based P450 inhibition [9]: not a mechanism-based inhibitor
CC(=O)CC[C@@H]1[C@H]2CC(=C(C)C)C(=O)C[C@@]12C [Compound 3, curcumenone] | 39.8 ± 4.2 (≈ 170 µM) | – | 1.3 | 43.3 ± 6.2 (≈ 185 µM) | – | 1.2 | 8.3 ± 1 (≈ 35.4 µM) | 6.0 | > 100 | 0.5 | 50 ± 8.6 (≈ 213 µM) | slight toxicity | cell shrinkage, loss of contact with adjacent cells, and decrease in cell numbers | induction of apoptotic death occurred | strong antiproliferative activity | effect on alcohol-treated mice [10]: protective effect; antiproliferative/cytotoxic activity against Ca Ski (in words) ([4]; MTT assay): did not show any antiproliferative activity; toxicity towards normal cells HUVEC (in words) ([5]; listed as curcumenone): low toxicity; effect on D-galactosamine/lipopolysaccharide-induced acute liver injury [11]: effective protective effect; effect on liver alcohol dehydrogenase activity [12]: acceleration of liver alcohol dehydrogenase activity

From publication PMC4121215, “Cytotoxic Constituents from the Rhizomes of Curcuma zedoaria” (The Scientific World Journal, 2014)
